In ChEMBL document CHEMBL1201862, “PubChem BioAssay data set” (2004):
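In this assay, cells in 96-well plates receive the compound at five concentrations for 48 hours. Endpoints are linearly interpolated between the surrounding concentrations. Abbreviation: GI50, concentration required for 50% inhibition of growth.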 Active and inactive are the calls of the source. Rule as the data show it: active = GI50 up to about 1.1 µM and inactive = higher.

Key:
Assay in all cases: DTP human tumour cell line panel, 48 h
DLD-1 = test system: DLD-1
DMS-273 = test system: DMS-273
LXFL 529 = test system: LXFL 529
SNB-78 = test system: SNB-78
XF498 = test system: XF498
DMS-114 = test system: DMS-114
HOP-18 = test system: HOP-18
M19-MEL = test system: M19-MEL
RXF 631 = test system: RXF 631

SMILES	GI50 (DLD-1)	GI50 (DMS-273)	GI50 (LXFL 529)	GI50 (SNB-78)	GI50 (XF498)	GI50 (DMS-114)	GI50 (HOP-18)	GI50 (M19-MEL)	GI50 (RXF 631)
NC(=O)C(=O)C1C(=O)N(c2ccccc2)N=C1N (stereo not given)	> 100 µM (inactive)	> 100 µM (inactive)	> 100 µM (inactive)	> 100 µM (inactive)	> 100 µM (inactive)				
O=S(=O)(N/N=C/c1cccc(/C=N/NS(=O)(=O)c2ccccc2)c1)c1ccccc1	81.5 µM (inactive)	> 100 µM (inactive)	39 µM (inactive)	> 100 µM (inactive)		47.4 µM (inactive)	91 µM (inactive)	> 100 µM (inactive)	73.8 µM (inactive)
COc1cc(/C=C2/C(=O)N(C(=O)OCC(C)C)C(Cc3cc(OC)c(OC)c(C)c3OC)C(=O)N2Cc2ccccc2)c(OC)c(C)c1OC (stereo not given)	84.3 µM (inactive)	> 100 µM (inactive)	5.57 µM (inactive)			23.1 µM (inactive)	> 100 µM (inactive)	> 100 µM (inactive)	> 100 µM (inactive)
Cc1ccccc1NC(=O)C(=O)Cc1nc2ccccc2s1	> 100 µM (inactive)	> 100 µM (inactive)	> 100 µM (inactive)	92.5 µM (inactive)	> 100 µM (inactive)	> 100 µM (inactive)	> 100 µM (inactive)	> 100 µM (inactive)	> 100 µM (inactive)
c1ccc2c(NCCCCCCNc3c4ccccc4nc4ccccc34)c3ccccc3nc2c1	0.291 µM (active)	0.0214 µM (active)	0.155 µM (active)	0.498 µM (active)	1.41 µM (inactive)	0.366 µM (active)	2.91 µM (inactive)	1.09 µM (active)	
COc1nc(NC2OC(COC(C)=O)C(OC(C)=O)C(OC(C)=O)C2OC(C)=O)c(/N=C/C=N/c2c(NC3OC(COC(C)=O)C(OC(C)=O)C(OC(C)=O)C3OC(C)=O)nc(OC)n(C)c2=O)c(=O)n1C (stereo not given)	> 100 µM (inactive)		> 100 µM (inactive)		44.2 µM (inactive)	> 100 µM (inactive)	> 100 µM (inactive)	> 100 µM (inactive)	
Cc1[nH]c2ccccc2c1-c1n[nH]c(=O)c2ccccc12	15.9 µM (inactive)	8.79 µM (inactive)	21.6 µM (inactive)	46.8 µM (inactive)	27.1 µM (inactive)	14.8 µM (inactive)		29 µM (inactive)	13 µM (inactive)
CC(C)OC(=O)c1cccnc1/C=N/O	> 100 µM (inactive)	> 100 µM (inactive)	> 100 µM (inactive)	> 100 µM (inactive)	> 100 µM (inactive)	> 100 µM (inactive)		> 100 µM (inactive)	
C[C@H](N)C(=O)N[C@@H]1[C@H]2C(=C(O)C[C@@H](O)[C@@H]2O)C(=O)O[C@]1(C)C(Cl)Cl [BACTOBOLIN]	0.24 µM (active)	0.327 µM (active)	0.108 µM (active)	0.281 µM (active)	0.0938 µM (active)	0.178 µM (active)	0.57 µM (active)	0.232 µM (active)	0.289 µM (active)
COc1ccc(CC2C(=O)NC(C)C(=O)N(C)C3Cc4ccc(cc4)Oc4cc(ccc4O)CC(C(=O)NC(C)C(=O)NC(C)C(=O)N2C)N(C)C3=O)cc1 (stereo not given)	0.0469 µM (active)	0.0175 µM (active)		0.0175 µM (active)	0.0175 µM (active)			0.0175 µM (active)	
CC1=CCCC2C1(C)CCC(C)C2(C)Cc1cc(O)ccc1O (stereo not given)	6.34 µM (inactive)	4.91 µM (inactive)		2.59 µM (inactive)	7.23 µM (inactive)	4.2 µM (inactive)	19.2 µM (inactive)	5.57 µM (inactive)	
CN(C)CC1(C)CC/C(=C\c2ccc3c(c2)OCO3)C1=O (stereo not given)	> 100 µM (inactive)	> 100 µM (inactive)	> 100 µM (inactive)	> 100 µM (inactive)	> 100 µM (inactive)	57.4 µM (inactive)	> 100 µM (inactive)	> 100 µM (inactive)	
COC(=O)c1ccccc1N1C(=O)Cc2ccccc2C1=O		> 100 µM (inactive)	> 100 µM (inactive)	> 100 µM (inactive)		> 100 µM (inactive)		> 100 µM (inactive)	
CCC1CCCCN1CC(C(C)=O)C(c1ccccc1)c1c(O)c2ccccc2oc1=O (stereo not given)	> 100 µM (inactive)	> 100 µM (inactive)		> 100 µM (inactive)	> 100 µM (inactive)	> 100 µM (inactive)		> 100 µM (inactive)	> 100 µM (inactive)
Clc1ccc2c(c1)-c1c3c(nn1-c1ccccc1)-c1ccccc1SC3O2 (stereo not given)		> 100 µM (inactive)	> 100 µM (inactive)	> 100 µM (inactive)	> 100 µM (inactive)	56.1 µM (inactive)	> 100 µM (inactive)	> 100 µM (inactive)	
CCOC(=O)/C=C1\CCCC12OCCO2	89.3 µM (inactive)	53.5 µM (inactive)	> 100 µM (inactive)	> 100 µM (inactive)		85.5 µM (inactive)	> 100 µM (inactive)	> 100 µM (inactive)	
NC1CCC2(O)c3ccccc3C2C1 (stereo not given)		> 100 µM (inactive)	> 100 µM (inactive)	> 100 µM (inactive)	> 100 µM (inactive)	> 100 µM (inactive)	> 100 µM (inactive)	> 100 µM (inactive)	
CSc1nc2c(nc(N)n2C2OC(COC(C)=O)C(OC(C)=O)C(OC(C)=O)C2OC(C)=O)c(=O)n1C (stereo not given)	> 100 µM (inactive)		> 100 µM (inactive)	> 100 µM (inactive)	> 100 µM (inactive)	> 100 µM (inactive)	> 100 µM (inactive)		> 100 µM (inactive)
NC1CCCCC1.O=C(O)C1(P(=O)(O)O)CC1	> 100 µM (inactive)	> 100 µM (inactive)	> 100 µM (inactive)	> 100 µM (inactive)	> 100 µM (inactive)	> 100 µM (inactive)	> 100 µM (inactive)	> 100 µM (inactive)	
CC(C)C(C(=O)O)N(CC1(O)OCC(O)C(O)C1O)N=O (stereo not given)	> 100 µM (inactive)	> 100 µM (inactive)	> 100 µM (inactive)	> 100 µM (inactive)	> 100 µM (inactive)	> 100 µM (inactive)		> 100 µM (inactive)	> 100 µM (inactive)
CC1C=CC(C)C2(O)C(=O)NC(O)C12 (stereo not given)	> 100 µM (inactive)	> 100 µM (inactive)	> 100 µM (inactive)	> 100 µM (inactive)		> 100 µM (inactive)	> 100 µM (inactive)	> 100 µM (inactive)	> 100 µM (inactive)
CC(=O)OC1COC(n2c(=S)n(-c3ccc(C)cc3)c(=O)c3ccccc32)C(OC(C)=O)C1OC(C)=O (stereo not given)	> 100 µM (inactive)	> 100 µM (inactive)	58.3 µM (inactive)	> 100 µM (inactive)	> 100 µM (inactive)	> 100 µM (inactive)	> 100 µM (inactive)	> 100 µM (inactive)	68.9 µM (inactive)
O=C(CC(=O)c1cccc2ccccc12)C(=O)Nc1nccs1	> 100 µM (inactive)	> 100 µM (inactive)	> 100 µM (inactive)	> 100 µM (inactive)			> 100 µM (inactive)	> 100 µM (inactive)	
Cc1[nH]c2ccccc2c1C1Cc2ccccc2N1C(=O)/C(Cl)=C/c1ccccc1 (stereo not given)	74.3 µM (inactive)	> 100 µM (inactive)	> 100 µM (inactive)	23.3 µM (inactive)	12.4 µM (inactive)	> 20.9 µM (inactive)	66.2 µM (inactive)	> 100 µM (inactive)	> 100 µM (inactive)
Cc1ccc(/N=N/c2c(C)nn(-c3ccccc3)c2-c2ccccc2)c(Br)c1	57.4 µM (inactive)		87.9 µM (inactive)				> 100 µM (inactive)	55.1 µM (inactive)	34.4 µM (inactive)
Cc1cc(N(CCC#N)S(=O)(=O)c2ccccc2)ccc1C=O	> 100 µM (inactive)	> 100 µM (inactive)	> 100 µM (inactive)	> 100 µM (inactive)		> 100 µM (inactive)	> 100 µM (inactive)		> 100 µM (inactive)
O=c1c(C(c2ccc([N+](=O)[O-])cc2)c2c(O)c3ccccc3n(-c3ccccc3)c2=O)c(O)c2ccccc2n1-c1ccccc1	6.41 µM (inactive)	22.9 µM (inactive)	8.05 µM (inactive)	21.7 µM (inactive)	19.7 µM (inactive)	20.3 µM (inactive)	2.4 µM (inactive)	32.5 µM (inactive)	14.7 µM (inactive)
S=C1ON=C(c2ccccc2)/C1=C/Nc1ccccc1	37.2 µM (inactive)	> 100 µM (inactive)	> 100 µM (inactive)	> 100 µM (inactive)	> 100 µM (inactive)	> 100 µM (inactive)	< 0.01 µM (active)		
N#C/C(=C1\SC(C(N)=O)=C(N)N1c1ccccc1)c1nc2ccccc2[nH]1	> 100 µM (inactive)	> 100 µM (inactive)	> 100 µM (inactive)	44.4 µM (inactive)	> 100 µM (inactive)	> 100 µM (inactive)		> 100 µM (inactive)	
